US6458806B1, “Aryl alkenamides derivatives as MCP-1 antagonists” (Millennium Pharmaceuticals, Inc., priority 1996, dated 2002)
Counter-ions that a name gives are not always drawn.

Legend:
CD3-Blasts = test: CD3-Blast chemotaxis assay (transendothelial migration to MCP-1); type: cell-based; details: ECV-304; migration of human CD3-Blasts to about 10 nM MCP-1 across ECV304 endothelial cells, approximately 1 hour
Excerpt: CD3—Blast Chemotaxis Assay
Recombinant human MCP-1 was obtained from Peprotech (Rockey Hill, N.J.). T lymphocyte blast cells (CD3-Blasts) were generated by standard protocols (Coligan, J. E., A. M. Kruisbeek, D. H. Macgulies, E. M. Shevach, and W. Strober, editors. 1992. Current Protocols in Immunology. John Wiley and Sons, New York, 7.1.2, 7.10.1-7.10.10). Briefly, human peripheral blood mononuclear cells (PBMC) were isoltated from heparinized venous blood by Percoll density gradient centrifugation (d=1.088) at room temperature. RBCs were removed by hypotonic lysis or Dextran sedimentation. […] CD3-Blast chemotaxis was assessed no sooner than 3 to 4 days after transfer to the IL-2 containing medium using a modification of a transendothelial migration assay (Carr. M. W., S. J. Roth, B. Luther, S. S. Rose, and T. A. Springer. 1994. Monocyte chemoattractant protein 1 acts as a T-lymphocyte chemoattractant. Proc. Natl. Acad. Sci. USA 91:3652-6). […] Background migration was determined by counting cells that migrated in the absence of MCP-1 in the lower chamber. […] The percent inhibition by compounds of directed migration was determined by the following formula: [formula] […]

[1] = tested on: T cell recruitment to skin DHR sites; test: Inhibition of T cell recruitment to rat skin inflammatory (DHR) sites; type: in vivo
Procedure: Inhibition of T Cell Recruitment to Rat Skin Inflammatory Sites by Compound 1
Inbred, approximately 200 gm, male Lewis rats were used in all experiments. Cutaneous delayed hypersensitivity (DHR) was induced as previously described (1). Briefly, rats were sensitized to KLH (Sigma Chemical Co., St. Louis, Mo.) by administering 50 μg KLH in 0.1 ml complete Freund's adjuvant (CFA; Sigma Chemical Co.) into each of 4 subcutaneous sites. After 14 days, DHR was elicited by the challenge of 5 μg KLH in PBS into multiple intradermal sites on the back. Analysis was performed 24 hours after antigen challenge. For each experiment, there were at least three groups of animals of at least four animals in each group. […]
T cell recruitment at sites of DHR was quantified using methods previously described (1-4). […] The cells in the effluent were highly purified (>95%) rat T cells as assessed by anti-rat CD3 (monoclonal antibody KT3, Biosource International, Camarillo, Calif.) immunoreactivity by flow cytometry. […] Skin challenge sites (8 mm in diameter) were counted on a γ counter 24 hours after injection of radiolabeled T cells. Lung, liver, and spleen were also collected and counted as comparative indices for evaluation of input.
Statistical significance was determined using a paired Student's t-test. […]

O=C(/C=C/C=C/c1ccc(Cl)c(Cl)c1)NCCCN1CCCCC1 [Example 1, 5-(3,4-Dichloro-phenyl)-penta-2,4-dienoic Acid (3-piperidin-1-yl-propyl)-amide-HCl]
IC50 (CD3-Blasts): 23 µM | inhibition of T cell recruitment in rat DHR (result in words) ([1]; 30 mg/kg per os at time of antigen challenge, 24 hour period, FIG. 2): statisticallly significant inhibitory effect | inhibition of recruitment of 111In-labeled rat T cells to skin DHR sites ([1]; Lewis rats, 30 mg/kg once per os at time of antigen (KLH) challenge, 24 hours, P<0.05, dose-dependent): approximately 80%
